According to patent publication US10131652B2, “Pyrimidinyloxy benzene derivatives as herbicides” (E. I. DU PONT DE NEMOURS AND COMPANY, priority 2014, dated 2018):

Key:
Format in all cases: in vivo
rice (Oryza sativa) = assay: Test C flooded paddy test plant response; conditions: Flood, 250 g ai/ha; scale of 0 to 100 where 0 is no effect and 100 is complete control; 13 to 15 days
Summary of the method: (§1)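 Visual injury ratings (0, no effect; 100, complete control) were assigned after 13 to 15 days in a greenhouse, comparing treated plants with controls. Compounds had been added straight into paddy water over 2-leaf-stage plants flooded to 3 cm.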

[1] = system: small-flower umbrella sedge (Cyperus difformis); assay: Test C flooded paddy test plant response; conditions: Flood, 250 g ai/ha; scale of 0 to 100 where 0 is no effect and 100 is complete control; 13 to 15 days
Summary of the method: as §1

[2] = system: barnyardgrass (Echinochloa crus-galli); assay: Test C flooded paddy test plant response; conditions: Flood, 250 g ai/ha; scale of 0 to 100 where 0 is no effect and 100 is complete control; 13 to 15 days
Summary of the method: as §1

[3] = system: ducksalad (Heteranthera limosa); assay: Test C flooded paddy test plant response; conditions: Flood, 250 g ai/ha; scale of 0 to 100 where 0 is no effect and 100 is complete control; 13 to 15 days
Summary of the method: as §1

wild oat (Avena fatua) = assay: Test D postemergence plant response; conditions: for Plant response rating, Oat, Wild: scale 0 to 100, 0 no effect, 100 complete control
Summary of the method: (§2)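 Postemergence spray on plants 2–18 cm tall (1- to 4-leaf stage), grown in pots of peat/vermiculite medium. Plants were kept in a greenhouse for 13–15 days, then visually rated against untreated controls on a 0 (no effect) to 100 (complete control) scale.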

kochia (Kochia scoparia) [4] = assay: Test D postemergence plant response; conditions: for Plant response rating, Kochia: scale 0 to 100, 0 no effect, 100 complete control
Summary of the method: as §2

[5] = system: chickweed (common chickweed, Stellaria media); assay: Test D postemergence plant response; conditions: for Chickweed plant response rating: scale 0 to 100 (0 no effect, 100 complete control); for Plant response rating, Chickweed: scale 0 to 100, 0 no effect, 100 complete control
Summary of the method: as §2

[6] = system: blackgrass (Alopecurus myosuroides); assay: Test B postemergence plant response
Summary of the method: (§3)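 Weeds grown in loam soil/sand pots were sprayed postemergence at 2 to 10 cm height, one- to two-leaf stage. After approximately 10 days in greenhouse, injury was rated visually against untreated controls on a 0 (no effect) to 100 (complete control) scale; dash means no test result.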

[7] = system: galium (catchweed bedstraw, Galium aparine); assay: Test B postemergence plant response
Summary of the method: as §3

[8] = system: ragweed (common ragweed, Ambrosia elatior); assay: Test B pre-/postemergence plant response
Summary of the method: (§4)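 Seeds in loam–sand blend given preemergence soil spray; separately, plants at one- to two-leaf stage (2–10 cm) sprayed postemergence, compounds in non-phytotoxic solvent with surfactant. Injury rated visually versus untreated controls after ~10 days in greenhouse, 0 (no effect) to 100 (complete control).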

[9] = system: giant foxtail (Setaria faberii); assay: Test B pre-/postemergence plant response
Summary of the method: as §4

corn (Zea mays) = assay: Test B pre-/postemergence plant response
Summary of the method: as §4

[10] = system: wheat (Triticum aestivum); assay: Test B pre-/postemergence plant response
Summary of the method: as §4

kochia (Kochia scoparia) [11] = assay: Test B pre-/postemergence plant response
Summary of the method: as §4

[12] = system: Italian ryegrass (Lolium multiflorum); assay: Test B pre-/postemergence plant response
Summary of the method: as §4

[13] = system: barnyardgrass (Echinochloa crus-galli); assay: Test B pre-/postemergence plant response
Summary of the method: as §4

[14] = system: pigweed (Amaranthus retroflexus); assay: Test B pre-/postemergence plant response
Summary of the method: as §4

[15] = 31 g ai/ha, scale 0 to 100 (0 no effect, 100 complete control)
[16] = 125 g ai/ha, postemergence, 0 to 100 scale, 0 no effect, 100 complete control
[17] = Postemergence, 500 g ai/ha, 0 to 100 scale (0 no effect, 100 complete control)
[18] = Preemergence, 125 g ai/ha, 0 to 100 scale (0 no effect, 100 complete control)
[19] = Preemergence, 500 g ai/ha, 0 to 100 scale where 0 is no effect and 100 is complete control

**Q.** What does the source list for `FC(F)(F)c1cc(-c2c(Br)cccc2Oc2ncc(Cl)cn2)no1` [Compound 170]?
**A.** Rice plant response rating (rice (Oryza sativa)): 0; Sedge, Umbrella plant response rating [1]: 0; Barnyardgrass plant response rating [2]: 0; Ducksalad plant response rating [3]: 0; Oat, Wild plant response rating (wild oat (Avena fatua); [15]): 5; Plant response rating, Oat, Wild (wild oat (Avena fatua); 62 g ai/ha): 5; Plant response rating, Oat, Wild (wild oat (Avena fatua); 125 g ai/ha): 10; Kochia plant response rating (kochia (Kochia scoparia) [4]; [15]): 60; Plant response rating, Kochia (kochia (Kochia scoparia) [4]; 62 g ai/ha): 85; Plant response rating, Kochia (kochia (Kochia scoparia) [4]; 125 g ai/ha): 100; Chickweed plant response rating ([5]; 16 g ai/ha): 30; Chickweed plant response rating ([5]; 31 g ai/ha): 65; Plant response rating, Chickweed ([5]; 62 g ai/ha): 90; Plant response rating, Chickweed ([5]; 125 g ai/ha): 100; Plant response rating, Blackgrass [6, 16]: 50; Plant response rating, Blackgrass [6, 17]: 60; Plant response rating, Galium [7, 16]: 80; Plant response rating, Galium [7, 17]: 100; Plant response rating, Ragweed [8, 16]: 10; Plant response rating, Ragweed [8, 17]: 50; Ragweed plant response rating [8, 18]: 20; Plant response rating, Ragweed [8, 19]: 60; Plant response rating, Foxtail, Giant [9, 16]: 30; Plant response rating, Foxtail, Giant [9, 17]: 50; Foxtail, Giant plant response rating [9, 18]: 60; Plant response rating, Foxtail, Giant [9, 19]: 90; Plant response rating, Corn (corn (Zea mays); [16]): 20; Plant response rating, Corn (corn (Zea mays); [17]): 20; Plant response rating, Wheat [10, 16]: 0; Plant response rating, Wheat [10, 17]: 30; Plant response rating, Kochia (kochia (Kochia scoparia) [11]; [16]): 70; Plant response rating, Kochia (kochia (Kochia scoparia) [11]; [17]): 100; Kochia plant response rating (kochia (Kochia scoparia) [11]; [18]): 30; Plant response rating, Kochia (kochia (Kochia scoparia) [11]; [19]): 80; Plant response rating, Ryegrass, Italian [12, 16]: 0; Plant response rating, Ryegrass, Italian [12, 17]: 20; Ryegrass, Italian plant response rating [12, 18]: 0; Plant response rating, Ryegrass, Italian [12, 19]: 20; Plant response rating, Barnyardgrass [13, 16]: 0; Plant response rating, Barnyardgrass [13, 17]: 20; Barnyardgrass plant response rating [13, 18]: 0; Plant response rating, Barnyardgrass [13, 19]: 20; Plant response rating, Pigweed [14, 16]: 100; Plant response rating, Pigweed [14, 17]: 100; Pigweed plant response rating [14, 18]: 100; Plant response rating, Pigweed [14, 19]: 100
